# Where “and” joins values, the source holds several entries; their conditions need not be identical. Equal entries are not always repeated.
# Columns and labels:
# K-Ras G13C = K-Ras G13C (Homo sapiens (Human), UniProt P01116+P62937, G13C); test: Ras-Raf (BRAF RBD) disruption / FRET / MOA assay, KRAS G13C; format: biochemical; conditions: KRAS G13C; Ras-Raf disruption/FRET/MOA assay; read-out: IC50* KRAS G13C FRET data
# Method: (§1) The purpose of this biochemical assay is to measure the ability of test compounds to facilitate ternary complex formation between a nucleotide-loaded Ras isoform and cyclophilin A; the resulting ternary complex disrupts binding to a BRAF^RBD construct, inhibiting Ras signaling through a RAF effector.
# (§2) Compound is present in plate wells as a 10-point 3-fold dilution series starting at a final concentration of 30 μM. After incubation at 25° C. for 3 hours, a mixture of Anti-His Eu-W1024 and anti-GST allophycocyanin is then added to assay sample wells at final concentrations of 10 nM and 50 nM, respectively, and the reaction incubated for an additional 1.5 hours. […] Compounds that facilitate disruption of a Ras:RAF complex are identified as those eliciting a decrease in the TR-FRET ratio relative to DMSO control wells.
# (§3) This protocol may also be executed substituting other Ras proteins or nucleotides.
# (§4) The purpose of this biochemical assay was to measure the ability of test compounds to facilitate ternary complex formation between a nucleotide-loaded K-Ras isoform and Cyclophilin A; the resulting ternary complex disrupts binding to a BRAF^RBD construct, inhibiting K-Ras signaling through a RAF effector. Data is reported as IC50 values.
# as §2, with “Compound was” for “Compound is”, “allophycocyanin was” for “allophycocyanin is”, “a K-Ras:RAF” for “a Ras:RAF”, “complex were” for “complex are”
# KRAS G12S = KRAS G12S (Homo sapiens (Human), UniProt P01116+P62937, G12S); test: Ras-Raf (BRAF RBD) disruption / FRET / MOA assay, KRAS G12S; format: biochemical; conditions: Ras-Raf disruption/FRET/MOA assay; class symbols; read-out: KRAS G12S FRET data IC50
# Procedure, shortened: (§5)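 Compounds, top final concentration 30 μM in 10-point 3-fold series, incubated 3 hours at 25° C with nucleotide-loaded Ras, cyclophilin A and BRAF RBD.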
# KRAS G12D = KRAS G12D (Homo sapiens (Human), UniProt P01116+P62937, G12D); test: Ras-Raf (BRAF RBD) disruption / FRET / MOA assay, KRAS G12D; format: biochemical; conditions: Ras-Raf disruption/FRET/MOA assay; class symbols; read-out: KRAS G12D FRET data IC50
# Procedure, shortened: as §5
# [1] = system: NCI-H358 cells (K-Ras G12C); test: Potency assay: pERK in NCI-H358 cells; format: cell-based, human; conditions: Homo sapiens, NCI-H358; H358 KRAS G12C; read-out: pERK EC50
# Procedure, shortened: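 Inhibition of cellular pERK after a 4 h treatment, detected by AlphaLISA or In-Cell Western. IC50 from a four-parameter concentration-response fit.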
# KRAS WT = KRAS WT (Homo sapiens (Human), UniProt P01116+P62937); test: Ras-Raf (BRAF RBD) disruption / FRET / MOA assay, KRAS WT; format: biochemical; conditions: read-out: IC50* KRAS WT FRET data
# Method: as §1, §2, §3, §4
# as §2, with “Compound was” for “Compound is”, “allophycocyanin was” for “allophycocyanin is”, “a K-Ras:RAF” for “a Ras:RAF”, “complex were” for “complex are”
# K-Ras G12C = K-Ras G12C (Homo sapiens (Human), UniProt P01116+P62937, G12C); test: Ras-Raf (BRAF RBD) disruption / FRET / MOA assay, KRAS G12C; format: biochemical; conditions: KRAS G12C; Ras-Raf disruption/FRET/MOA assay; read-out: IC50* KRAS G12C FRET data
# Method: as §1, §2, §3, §4
# as §2, with “Compound was” for “Compound is”, “allophycocyanin was” for “allophycocyanin is”, “a K-Ras:RAF” for “a Ras:RAF”, “complex were” for “complex are”
# NRAS G12C = NRAS G12C (Homo sapiens (Human), UniProt P01111+P62937, G12C); test: Ras-Raf (BRAF RBD) disruption / FRET / MOA assay, NRAS G12C; format: biochemical; conditions: read-out: IC50* NRAS G12C FRET data
# Method: as §1, §2
# This protocol may also be executed substituting other Ras proteins or nucleotides. […]
# KRAS G13D = KRAS G13D (Homo sapiens (Human), UniProt P01116+P62937, G13D); test: Ras-Raf (BRAF RBD) disruption / FRET / MOA assay, KRAS G13D; format: biochemical; conditions: read-out: IC50* KRAS G13D FRET data
# Method: as §1, §2, §3, §4
# as §2, with “Compound was” for “Compound is”, “allophycocyanin was” for “allophycocyanin is”, “a K-Ras:RAF” for “a Ras:RAF”, “complex were” for “complex are”
# KRAS G12V = KRAS G12V (Homo sapiens (Human), UniProt P01116+P62937, G12V); test: Ras-Raf (BRAF RBD) disruption / FRET / MOA assay, KRAS G12V; format: biochemical; conditions: read-out: IC50* KRAS G12V FRET data
# Method: as §1, §2, §3, §4
# as §2, with “Compound was” for “Compound is”, “allophycocyanin was” for “allophycocyanin is”, “a K-Ras:RAF” for “a Ras:RAF”, “complex were” for “complex are”
# KRAS G12V, sequence (P01116-2 other isoform, or with tags, fused parts or gaps G12V): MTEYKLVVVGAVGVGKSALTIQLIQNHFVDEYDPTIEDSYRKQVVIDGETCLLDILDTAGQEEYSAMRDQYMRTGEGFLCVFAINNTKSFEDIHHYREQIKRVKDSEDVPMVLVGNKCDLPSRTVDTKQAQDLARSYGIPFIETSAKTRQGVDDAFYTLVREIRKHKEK
# KRAS G12V, sequence (P62937 whole entry): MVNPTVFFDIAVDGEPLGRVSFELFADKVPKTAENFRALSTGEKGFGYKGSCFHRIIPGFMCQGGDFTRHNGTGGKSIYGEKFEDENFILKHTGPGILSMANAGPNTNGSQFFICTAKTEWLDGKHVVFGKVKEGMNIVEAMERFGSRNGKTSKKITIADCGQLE
# K-Ras G12C, sequence (P01116-2 other isoform, or with tags, fused parts or gaps G12C): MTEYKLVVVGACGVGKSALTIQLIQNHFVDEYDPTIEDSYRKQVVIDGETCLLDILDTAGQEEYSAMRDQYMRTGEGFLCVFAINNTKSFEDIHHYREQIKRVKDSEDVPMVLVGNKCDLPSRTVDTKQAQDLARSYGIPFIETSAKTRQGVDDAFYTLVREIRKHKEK
# K-Ras G12C, sequence (P62937 whole entry): as the sequence (P62937 whole entry) above
# KRAS G13D, sequence (P01116-2 other isoform, or with tags, fused parts or gaps G13D): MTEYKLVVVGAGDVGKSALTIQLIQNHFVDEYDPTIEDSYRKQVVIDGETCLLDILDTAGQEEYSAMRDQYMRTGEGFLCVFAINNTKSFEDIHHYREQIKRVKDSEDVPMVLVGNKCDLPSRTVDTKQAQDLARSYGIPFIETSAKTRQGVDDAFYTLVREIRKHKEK
# KRAS G13D, sequence (P62937 whole entry): as the sequence (P62937 whole entry) above
# KRAS G12D, sequence (P01116-2 other isoform, or with tags, fused parts or gaps G12D): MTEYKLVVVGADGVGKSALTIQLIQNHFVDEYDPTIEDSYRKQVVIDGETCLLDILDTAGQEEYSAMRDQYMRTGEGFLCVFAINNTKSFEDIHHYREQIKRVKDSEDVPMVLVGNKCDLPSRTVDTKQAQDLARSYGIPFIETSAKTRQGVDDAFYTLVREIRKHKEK
# KRAS G12D, sequence (P62937 whole entry): as the sequence (P62937 whole entry) above
# NRAS G12C, sequence (P01111 whole entry G12C): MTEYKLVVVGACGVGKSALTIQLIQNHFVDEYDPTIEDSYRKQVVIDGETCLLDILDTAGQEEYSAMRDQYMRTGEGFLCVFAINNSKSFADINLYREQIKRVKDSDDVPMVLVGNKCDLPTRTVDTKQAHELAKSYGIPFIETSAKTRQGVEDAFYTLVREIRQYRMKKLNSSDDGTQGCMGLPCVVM
# NRAS G12C, sequence (P62937 whole entry): as the sequence (P62937 whole entry) above
# KRAS G12S, sequence (P01116-2 other isoform, or with tags, fused parts or gaps G12S): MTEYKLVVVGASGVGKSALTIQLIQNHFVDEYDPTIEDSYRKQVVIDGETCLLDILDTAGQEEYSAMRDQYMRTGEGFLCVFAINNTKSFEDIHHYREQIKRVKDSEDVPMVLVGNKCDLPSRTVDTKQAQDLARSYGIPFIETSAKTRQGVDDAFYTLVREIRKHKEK
# KRAS G12S, sequence (P62937 whole entry): as the sequence (P62937 whole entry) above
# K-Ras G13C, sequence (P01116-2 other isoform, or with tags, fused parts or gaps G13C): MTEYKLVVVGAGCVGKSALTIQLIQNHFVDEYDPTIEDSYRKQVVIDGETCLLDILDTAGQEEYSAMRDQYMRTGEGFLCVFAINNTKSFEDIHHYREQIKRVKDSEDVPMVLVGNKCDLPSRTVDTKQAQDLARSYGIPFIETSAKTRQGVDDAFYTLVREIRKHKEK
# K-Ras G13C, sequence (P62937 whole entry, canonical isoform): as the sequence (P62937 whole entry) above
# KRAS WT, sequence (P01116-2 other isoform, or with tags, fused parts or gaps): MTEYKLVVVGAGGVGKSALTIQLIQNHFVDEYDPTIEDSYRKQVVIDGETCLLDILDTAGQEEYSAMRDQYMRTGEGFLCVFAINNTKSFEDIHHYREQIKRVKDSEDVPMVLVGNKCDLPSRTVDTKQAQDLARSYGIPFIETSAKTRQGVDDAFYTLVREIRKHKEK
# KRAS WT, sequence (P62937 whole entry): as the sequence (P62937 whole entry) above
Compound,IC50 (K-Ras G13C),IC50 (KRAS G12S),IC50 (KRAS G12D),EC50 [1],IC50 (KRAS WT),IC50 (K-Ras G12C),IC50 (NRAS G12C),IC50 (KRAS G13D),IC50 (KRAS G12V)
"C=CC(=O)N1CC[C@H](C(=O)N(C)[C@H](C(=O)N[C@H]2Cc3nc(cs3)-c3ccc4c(c3)c(c(-c3cccnc3[C@H](C)OC)n4CC)CC(C)(C)COC(=O)[C@@H]3CCCN(N3)C2=O)C(C)C)C1 (atropisomer, axis not shown) [Example A279]",> 10 µM (2×) and 1 µM to 10 µM,> 10 µM,> 10 µM,< 5 µM,> 10 µM,1 µM to 10 µM and > 10 µM (2×),1 µM to 10 µM and > 10 µM (2×),> 10 µM,> 10 µM
"C=CS(=O)(=O)N1CC[C@H](C(=O)N(C)[C@H](C(=O)N[C@H]2Cc3nc(cs3)-c3ccc4c(c3)c(c(-c3cccnc3[C@H](C)OC)n4CC)CC(C)(C)COC(=O)[C@@H]3CCCN(N3)C2=O)C(C)C)C1 (atropisomer, axis not shown) [Example A283]",10 nM to 100 nM and 1 µM to 10 µM (2×),1 µM to 10 µM and > 10 µM (2×),> 10 µM,< 5 µM,1 µM to 10 µM and > 10 µM (2×),10 nM to 100 nM and 1 µM to 10 µM (2×),0.1 to 1 µM and 1 to 10 µM and > 10 µM,> 10 µM,1 µM to 10 µM and > 10 µM (2×)
"C=CC(=O)N1CC2(CCN([C@H](C(=O)N[C@H]3Cc4cc(O)cc(c4)-c4ccc5c(c4)c(c(-c4cccnc4[C@H](C)OC)n5CC)CC(C)(C)COC(=O)[C@@H]4CCCN(N4)C3=O)C(C)C)C2=O)C1 (atropisomer, axis not shown) [Example A294]",< 0.01 µM,0.01 to 0.1 µM,0.1 to 1 µM,< 5 µM,0.01 to 0.1 µM,< 0.01 µM,< 0.01 µM,0.01 to 0.1 µM,0.1 to 1 µM
"CCn1c(-c2cccnc2[C@H](C)OC)c2c3cc(ccc31)-c1cccc(c1)C[C@H](NC(=O)[C@H](C(C)C)N(C)C(=O)[C@H]1CCN(C(=O)C#CC(C)(C)N3CCC(F)(F)C3)C1)C(=O)N1CCC[C@H](N1)C(=O)OCC(C)(C)C2 (atropisomer, axis not shown) [Example A325]",1 to 10 µM,1 to 10 µM,> 10 µM,< 5 µM,> 10 µM,1 to 10 µM,1 to 10 µM,> 10 µM,1 to 10 µM
"CCn1c(-c2cccnc2[C@H](C)OC)c2c3cc(ccc31)-c1cc(cc(C(F)F)c1)C[C@H](NC(=O)[C@H](C(C)C)N(C)C(=O)[C@H]1CCN(C(=O)C#CC(C)(C)N3CCC3)C1)C(=O)N1CCC[C@H](N1)C(=O)OCC(C)(C)C2 (atropisomer, axis not shown) [Example A466]",0.1 to 1 µM,1 to 10 µM,> 10 µM,< 5 µM,1 to 10 µM,0.01 to 0.1 µM,0.01 to 0.1 µM,1 to 10 µM,1 to 10 µM

# Continued, values first:
IC50 (K-Ras G13C),IC50 (KRAS G12S),IC50 (KRAS G12D),EC50 [1],IC50 (KRAS WT),IC50 (K-Ras G12C),IC50 (NRAS G12C),IC50 (KRAS G13D),IC50 (KRAS G12V),Compound
0.01 to 0.1 µM and 0.1 to 1 µM,0.1 to 1 µM,1 to 10 µM and 0.1 to 1 µM,< 5 µM,1 to 10 µM and 0.01 to 0.1 µM,0.01 to 0.1 µM and 0.1 to 1 µM,0.01 to 0.1 µM and 0.1 to 1 µM,0.1 to 1 µM and 0.01 to 0.1 µM,0.1 to 1 µM and 1 to 10 µM,"CCn1c(-c2cccnc2[C@H](C)OC)c2c3cc(ccc31)-c1cc(O)cc(c1)C[C@H](NC(=O)[C@H](C(C)C)N(C)C(=O)C1CCN(C(=O)/C=C/CN(C)C)CC1)C(=O)N1CCC[C@H](N1)C(=O)OCC(C)(C)C2 (atropisomer, axis not shown) [Example A261]"
0.1 to 1 µM,0.1 to 1 µM,0.1 to 1 µM,,0.1 to 1 µM,0.01 to 0.1 µM,0.01 to 0.1 µM,0.1 to 1 µM,0.1 to 1 µM,CCn1c(-c2cccnc2COC)c2c3cc(ccc31)-c1cc(O)cc(c1)C[C@H](NC(=O)[C@H](C(C)C)N(C)C(=O)[C@H]1CCN(C(=O)/C=C/CN(C)C)C1)C(=O)N1CCC[C@H](N1)C(=O)OCC(C)(C)C2 [Example A054]

# From US11566007B2, “Ras inhibitors” (Revolution Medicines, Inc., priority 2019, dated 2023)
